Reference: BindingDB's records for doi:10.1016/j.bmcl.2014.04.013 (University of Utah, 2014)

assay: Agonist activity at AHR in FVB/N mouse primary mammary epithelial cells assessed as blockade of mammary branching morphogenesis after 144 hrs by microscopic analysis in presence of FGF2

Row | SMILES | EC50
1 | Clc1ccc(-c2nc(-c3ccccc3)no2)c(Cl)c1 | 1.2 µM
2 | Nc1cc(Cl)ccc1-c1nc(-c2ccccc2)no1 | 1.4 µM
3 | O=[N+]([O-])c1cc(F)ccc1-c1nc(-c2ccccc2)no1 | 2.2 µM

Further lines, results first:

Row | EC50 | SMILES
4 | 3.2 µM | Nc1cc(C(F)(F)F)ccc1-c1nc(-c2ccccc2)no1
5 | > 10 µM | Clc1ccc(-c2nc(-c3ccccc3)no2)c(Cl)c1Cl
